Assay results: US20240075049A1 (priority 2020, published 2024)

Columns and labels:
[1] = adverse reaction in a treated coronavirus patient; assay type: in vivo, human; settings: person, doxycycline 100 mg bd added to amantadine, ivermectin, zinc
Protocol: A front-line worker and was diagnosed with coronavirus in association with fevers, aches and fatigue. They are commenced on amantadine orally using the standard capsule of […] once daily for ten days. […] They developed a rash to the doxycycline when added and this was changed to azithromycin 250 mg bd for the duration of the ten-day course.

[2] = more than 200 mcg/kg (12 mg), 2000 mcg/kg (120 mg) and above; cited from earlier work
[3] = ivermectin toxicity at high doses, relation to LD50; assay type: in vivo; settings: 2000 mcg/kg (120 mg in a 60 kg adult)
[4] = in vivo; cited from earlier work
[5] = in vivo; cited from earlier work; remark: listed apart in the source

In the case of `C[C@H]1c2cccc(O)c2C(=O)C2=C(O)[C@]3(O)C(=O)C(C(N)=O)=C(O)[C@@H](N(C)C)[C@@H]3[C@@H](O)[C@@H]21` [doxycycline], the adverse reaction [1] is reported as “rash”.

In the case of ivermectin, the “toxicity at doses above the accepted therapeutic dose” value [2] is given as “without any increase in ivermectin toxicity”, the “dose as percentage of the LD50” value [3] is given as 7% and the excretion [4] is given as “mostly in the feces”.

In the case of `CCN(CCO)CCCC(C)Nc1ccnc2cc(Cl)ccc12` (centres unmarked) [hydroxychloroquine], the half-life [5] is listed as 40 days.
